In patent US20260262643A1, “HERBICIDAL BENZOXAZINES” (FMC CORPORATION, priority 2022, published 2026) one finds pest or weed control, plant injury and Corn plant response rating (crop injury, 0 = no effect, 100 = complete kill) data, which are given here for 3 molecules.

Assay [1] has as its system ryegrass, Italian. Description: Test A postemergence. It counts as in vivo, Lolium multiflorum. The following applies: Lolium multiflorum, post-emergence, 240 h, postemergence, 10 days, 0 to 100 scale (0 no effect, 100 complete control); for pest or weed control at 125 g/ha: 125 g ai/ha, read-out: Ryegrass, Italian plant response rating; for pest or weed control at 500 g/ha: 500 g ai/ha, visual injury, read-out: Plant response rating, Ryegrass, Italian. A digest of the protocol: (§1)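 Seeds in loam–sand blend received a directed preemergence soil spray of compound in non-phytotoxic solvent with surfactant; postemergence plants (2–10 cm, one- to two-leaf stage) were sprayed with the same formulation. After 10 days in greenhouse, injury was rated visually versus untreated controls, 0 (no effect) to 100 (complete control).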

The subject of a further assay is soybean. Description: Test A postemergence. The following applies: Glycine max, post-emergence, 240 h, postemergence, 10 days, 0 to 100 scale (0 no effect, 100 complete control); for plant injury at 125 g/ha: 125 g ai/ha, read-out: Soybean plant response rating; for plant injury at 500 g/ha: 500 g ai/ha, visual injury, read-out: Plant response rating, Soybean. It counts as in vivo, Glycine max. A digest of the protocol:
as §1

A further assay has as its system sedge, umbrella. Kind of assay: Test B flooded paddy test. It counts as in vivo, Cyperus difformis. The following applies: Cyperus difformis, 312 h; 250 g ai/ha, Flood, 13 days, 0 to 100 scale (0 no effect, 100 complete control); read-out: Plant response rating, Sedge, Umbrella. A digest of the protocol:
(§2)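 Flooded to 3 cm at treatment time, 2-leaf plants got the test compound applied straight into the paddy water. They then stayed under constant flood in a greenhouse for 13 days. Ratings used a 0 to 100 visual scale.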

A further assay has as its system foxtail, giant. Description: Test A preemergence. It counts as in vivo, Setaria faberi. The following applies: Setaria faberi, pre-emergence, 240 h, read-out: Plant response rating, Foxtail, Giant; for pest or weed control at 125 g/ha: 125 g ai/ha, visual injury after 10 days, 0 to 100 scale, 0 is no effect, 100 is complete control; for pest or weed control at 500 g/ha: 500 g ai/ha, 0 to 100 scale (0 no effect, 100 complete control), 10 days. A digest of the protocol:
as §1

In a further assay the test system is goosegrass. Kind of assay: Test A preemergence. It counts as in vivo, Eleusine indica. The following applies: Eleusine indica, pre-emergence, 240 h, read-out: Plant response rating, Goosegrass; for pest or weed control at 125 g/ha: 125 g ai/ha, visual injury after 10 days, 0 to 100 scale, 0 is no effect, 100 is complete control; for pest or weed control at 500 g/ha: 500 g ai/ha, 0 to 100 scale (0 no effect, 100 complete control), 10 days. A digest of the protocol:
as §1

The subject of assay [2] is pigweed, palmer. Description: Test A postemergence. It counts as in vivo, Amaranthus palmeri. The following applies: Amaranthus palmeri, post-emergence, 240 h, postemergence, 10 days, 0 to 100 scale (0 no effect, 100 complete control); for pest or weed control at 125 g/ha: 125 g ai/ha, read-out: Pigweed, Palmer plant response rating; for pest or weed control at 500 g/ha: 500 g ai/ha, visual injury, read-out: Plant response rating, Pigweed, Palmer. A digest of the protocol:
as §1

Assay [3] relates to pigweed, palmer. Description: Test A preemergence. It counts as in vivo, Amaranthus palmeri. The following applies: Amaranthus palmeri, pre-emergence, 240 h, read-out: Plant response rating, Pigweed, Palmer; for pest or weed control at 125 g/ha: 125 g ai/ha, visual injury after 10 days, 0 to 100 scale, 0 is no effect, 100 is complete control; for pest or weed control at 500 g/ha: 500 g ai/ha, 0 to 100 scale (0 no effect, 100 complete control), 10 days. A digest of the protocol:
as §1

A further assay has as its system barnyardgrass. Description: Test B flooded paddy test. It counts as in vivo, Echinochloa crus-galli. The following applies: Echinochloa crus-galli, 312 h, 250 g ai/ha, Flood, 13 days, 0 to 100 scale (0 no effect, 100 complete control); read-out: Plant response rating, Barnyardgrass. A digest of the protocol: as §2
In another assay the test system is corn. Description: Test A postemergence. The following applies: Zea mays, post-emergence, 240 h, postemergence, 10 days, 0 to 100 scale (0 no effect, 100 complete control); for plant injury at 125 g/ha: 125 g ai/ha, read-out: Corn plant response rating; for Corn plant response rating (crop injury, 0 = no effect, 100 = complete kill) at 500 g/ha: 500 g ai/ha, visual injury. It counts as in vivo, Zea mays. A digest of the protocol:
as §1

Assay [4] has as its system oat, wild. Description: Test A postemergence. It counts as in vivo, Avena fatua. The following applies: Avena fatua, post-emergence, 240 h, postemergence, 10 days, 0 to 100 scale (0 no effect, 100 complete control); for pest or weed control at 125 g/ha: 125 g ai/ha, read-out: Oat, Wild plant response rating; for pest or weed control at 500 g/ha: 500 g ai/ha, visual injury, read-out: Plant response rating, Oat, Wild. A digest of the protocol:
as §1

Assay [5] has as its system oat, wild. Description: Test A preemergence. It counts as in vivo, Avena fatua. The following applies: Avena fatua, pre-emergence, 240 h, read-out: Plant response rating, Oat, Wild; for pest or weed control at 125 g/ha: 125 g ai/ha, visual injury after 10 days, 0 to 100 scale, 0 is no effect, 100 is complete control; for pest or weed control at 500 g/ha: 500 g ai/ha, 0 to 100 scale (0 no effect, 100 complete control), 10 days. A digest of the protocol: as §1

The subject of assay [6] is ryegrass, Italian. Description: Test A preemergence. It counts as in vivo, Lolium multiflorum. The following applies: Lolium multiflorum, pre-emergence, 240 h, read-out: Plant response rating, Ryegrass, Italian; for pest or weed control at 125 g/ha: 125 g ai/ha, visual injury after 10 days, 0 to 100 scale, 0 is no effect, 100 is complete control; for pest or weed control at 500 g/ha: 500 g ai/ha, 0 to 100 scale (0 no effect, 100 complete control), 10 days. A digest of the protocol: as §1

For the next assay, the system named is horseweed. Kind of assay: Test A postemergence. It counts as in vivo, Erigeron canadensis. The following applies: Erigeron canadensis, post-emergence, 240 h, postemergence, 10 days, 0 to 100 scale (0 no effect, 100 complete control); for pest or weed control at 125 g/ha: 125 g ai/ha, read-out: Horseweed plant response rating; for pest or weed control at 500 g/ha: 500 g ai/ha, visual injury, read-out: Plant response rating, Horseweed. A digest of the protocol:
as §1

Take `Cc1cccc2c1O[C@@H](C)CN2C(=O)c1cccc(-n2cnc(C3CCCC3)n2)c1` [Compound 80, [3-(3-Cyclopentyl-1H-1,2,4-triazol-1-yl)phenyl][(2S)-2,3-dihydro-2,8-dimethyl-4H-1,4-benzoxazin-4-yl]methanone]: the pest or weed control at 125 g/ha was determined as 20% in the assay on ryegrass, Italian [1]; 20% in the assay on foxtail, giant; 90% in the assay with goosegrass; 30% in the assay on pigweed, palmer [2]; 10% in the assay with pigweed, palmer [3]; 0% with oat, wild [4]. For the same molecule, the pest or weed control at 125 g/ha worked out at 0% in the assay with oat, wild [5]; 90% in the assay with ryegrass, Italian [6]; 0% in the assay on horseweed. The pest or weed control at 500 g/ha amounted to 70% in the assay on ryegrass, Italian [1]; 80% in the assay on foxtail, giant; 100% with goosegrass; 70% with pigweed, palmer [2]; 80% in the assay on pigweed, palmer [3]; 20% with oat, wild [4]. In addition, the pest or weed control at 500 g/ha in the assay on oat, wild [5] was 10%; in the assay with ryegrass, Italian [6] it was 100%; with horseweed it was 0%. Besides, the plant injury at 125 g/ha with soybean worked out at 70%; in the assay with corn, 10%. In the assay with soybean, the plant injury at 500 g/ha stood at 100%. Moreover, the pest or weed control at 250 g/ha stood at 0% with sedge, umbrella and 0% in the assay on barnyardgrass. Besides, in the assay on corn, the Corn plant response rating (crop injury, 0 = no effect, 100 = complete kill) at 500 g/ha was found to be 20%.

For `COc1ccc(-n2cnc(C(C)C)n2)cc1C(=O)N1C[C@H](C)Oc2c(Cl)cccc21` [Compound 84, [(2S)-8-chloro-2-methyl-2,3-dihydro-1,4-benzoxazin-4-yl]-[5-(3-isopropyl-1,2,4-triazol-1-yl)-2-methoxy-phenyl]methanone], the pest or weed control at 125 g/ha in the assay with ryegrass, Italian [1] was determined as 100%; in the assay with foxtail, giant, 100%; in the assay on goosegrass, 100%; in the assay with pigweed, palmer [2], 90%; with pigweed, palmer [3] it was 100%; in the assay on oat, wild [4], 90%. The pest or weed control at 125 g/ha in the assay on oat, wild [5] turned out to be 90%; in the assay with ryegrass, Italian [6], 100%; in the assay on horseweed, 40%. In addition, the pest or weed control at 500 g/ha in the assay on ryegrass, Italian [1] is 100%; in the assay on foxtail, giant, 100%; with goosegrass, 100%; in the assay on pigweed, palmer [2] it was 100%; with pigweed, palmer [3] it was 100%; in the assay on oat, wild [4], 90%. Also, the pest or weed control at 500 g/ha in the assay with oat, wild [5] was 90%; in the assay with ryegrass, Italian [6] it was 100%; in the assay with horseweed it was 50%. In addition, the plant injury at 125 g/ha stood at 100% with soybean and 70% in the assay on corn. Besides, the plant injury at 500 g/ha in the assay on soybean worked out at 100%. For the same molecule, the pest or weed control at 250 g/ha in the assay on sedge, umbrella came out at 100%; in the assay on barnyardgrass, 65%. In the assay with corn, this molecule gave a Corn plant response rating (crop injury, 0 = no effect, 100 = complete kill) at 500 g/ha of 90%.

Turning to `CCc1ncn(-c2ccc(OC)c(C(=O)N3C[C@H](C)Oc4c(Cl)cccc43)c2)n1` [Compound 88, [(2S)-8-Chloro-2,3-dihydro-2-methyl-4H-1,4-benzoxazin-4-yl][5-(3-ethyl-1H-1,2,4-triazol-1-yl)-2-methoxyphenyl]methanone], the pest or weed control at 125 g/ha with ryegrass, Italian [1] came to 80%; with foxtail, giant it was 100%; in the assay on goosegrass, 100%; in the assay with pigweed, palmer [2] it was 90%; with pigweed, palmer [3] it was 100%; in the assay on oat, wild [4] it was 90%. In addition, the pest or weed control at 125 g/ha with oat, wild [5] was 90%; in the assay with ryegrass, Italian [6], 100%; in the assay on horseweed it was 40%. In addition, the pest or weed control at 500 g/ha in the assay with ryegrass, Italian [1] was 100%; in the assay on foxtail, giant it was 100%; in the assay with goosegrass, 100%; with pigweed, palmer [2], 90%; in the assay with pigweed, palmer [3], 100%; with oat, wild [4], 90%. Also, the pest or weed control at 500 g/ha with oat, wild [5] was determined as 90%; in the assay on ryegrass, Italian [6], 100%; in the assay on horseweed it was 90%. Moreover, the figures for the plant injury at 125 g/ha in the assay with soybean and in the assay with corn were 100% and 90%, respectively. Besides, in the assay with soybean, the plant injury at 500 g/ha is 100%. The pest or weed control at 250 g/ha in the assay with sedge, umbrella was determined as 100%; in the assay on barnyardgrass, 45%. The molecule also registered a Corn plant response rating (crop injury, 0 = no effect, 100 = complete kill) at 500 g/ha in the assay on corn of 90%.
